Assay results published in ChEMBL document CHEMBL1156829 (Proc Natl Acad Sci U S A, 2008).

Key:
[1] = test system: Plasmodium falciparum; experiment: NOVARTIS: Inhibition of Plasmodium falciparum W2 (drug-resistant) proliferation in erythrocyte-based infection assay; assay type: functional, organism-based; settings: read-out: EC50
[2] = NOVARTIS: Cytotoxicity against human hepatocellular carcinoma cell line (Huh7); assay type: toxicity, cell-based, Huh-7; settings: Huh7 cells (hepatocellular carcinoma cell line)
[3] = test system: Plasmodium falciparum; experiment: NOVARTIS: Inhibition of Plasmodium falciparum 3D7 (drug-susceptible) proliferation in erythrocyte-based infection assay; assay type: functional, organism-based

| Compound | EC50 ([1]; Plasmodium falciparum, W2) | CC50 [2] | EC50 ([3]; Plasmodium falciparum, 3D7) | EC50 [1] | EC50 [3] |
| --- | --- | --- | --- | --- | --- |
| CCC(C)OC(=O)C1=C(C)NC2=C(C(=O)CC(c3ccc(Cl)cc3)C2)C1c1ccc(Cl)cc1 (stereo not given) | 0.0438 µM | > 100 µM | 0.216 µM |  |  |
| CCc1cc2c(NCCN3CCCCC3)ncnc2s1 | 0.466 µM | > 96.1 µM | 1.32 µM |  |  |
| O=C(Cc1ccccc1)NCc1ccc(Nc2c(-c3cccnc3)nc3ccccn23)cc1 | < 0.00613 µM | > 10 µM | 0.0342 µM |  |  |
| CCCc1nc2ccc(NC(=O)c3ccco3)cc2c(=O)n1Cc1ccc(-c2ccccc2)cc1 | 0.422 µM | > 100 µM | 0.262 µM |  |  |
| CCC(=O)NNc1cc(N2CCCC2)nc(N2CCCC2)n1 | 0.76 µM | > 100 µM | 0.79 µM |  |  |
| CCN(CC)c1nc(-c2cccnc2)nc2ccccc12 | 1.6 µM | 72.2 µM | 5.64 µM |  |  |
| Clc1ccc2c(N3CCCC3)ccnc2c1 | 0.124 µM | 64.5 µM | 0.283 µM |  |  |
| Cc1nc(N)sc1C(=O)NN=Cc1cccc(Br)c1 | 0.819 µM | > 10 µM | > 1.25 µM |  |  |
| CN(CCCNc1ccnc2cc(Cl)ccc12)S(=O)(=O)c1ccc([N+](=O)[O-])cc1 | 0.217 µM | > 11.1 µM | 0.24 µM |  |  |
| Cc1ccccc1Cn1c(=N)n(CC(O)c2ccc(Cl)c(Cl)c2)c2ccccc21 (stereo not given) | 0.0384 µM | 13.3 µM | 0.135 µM |  |  |
| COC(=O)CNC(c1ccccc1Cl)c1cc(Br)ccc1NS(=O)(=O)c1ccc(C)cc1 (stereo not given) | 1.76 µM | > 100 µM | 1.93 µM |  |  |
| OC(c1cc(C(F)(F)F)nc2c(C(F)(F)F)cccc12)C1CCCCN1 (stereo not given) [MEFLOQUINE] | 0.00814 µM | 18.9 µM | 0.0248 µM |  |  |
| Cc1nc2c(C#N)c(C)nn2c(C)c1Cc1cccc(F)c1 | 0.444 µM | > 10 µM | 0.437 µM |  |  |
| Oc1ccccc1Nc1nc(NCc2ccccc2)c2ccccc2n1 | 1.12 µM | 12.5 µM | 0.277 µM |  |  |
| C[n+]1c(-c2ccccc2)cc(-c2ccccc2)cc1-c1ccccc1 | > 0.59 µM | > 10 µM | > 1.02 µM |  |  |
| CCOC(=O)C1=C(C)N/C(=C\c2cc(C)n(-c3ccc(C)cc3)c2C)C1=O | 0.988 µM | > 10 µM | 1.84 µM |  |  |
| O=C(c1nccs1)C1CCN(C(=O)c2cscn2)CC1 | 1.39 µM | > 10 µM | > 1.25 µM |  |  |
| COC(CNC(=O)c1c[nH]c2ccc(S(=O)(=O)N3CCN(C)CC3)cc2c1=O)OC | 2.86 µM | > 100 µM | > 12.5 µM |  |  |
| COCCN(C)C(=O)COC(c1cccs1)c1cccnc1Cl (stereo not given) | 0.299 µM | > 10 µM | 0.407 µM |  |  |
| O=C(NN=Cc1cccc(Cl)c1)C1COc2ccccc2O1 (stereo not given) | > 0.144 µM | > 10 µM | > 0.935 µM |  |  |
| CN1C(=O)NC(c2cccnc2)C(C(=O)c2cccs2)C1(O)C(F)(F)F (stereo not given) | > 10 µM | > 100 µM | > 11.2 µM |  |  |
| O=C(Oc1ccccc1N1C(=O)C2C3C=CC(C3)C2C1=O)c1ccc([N+](=O)[O-])cc1 (stereo not given) | 8.07 µM | > 100 µM | > 9.74 µM |  |  |
| COc1ccc(-n2nc(C(=O)NCC(=O)Nc3ccc(F)cc3)c3ccccc3c2=O)cc1Cl | > 1.25 µM | > 10 µM | > 1.14 µM |  |  |
| Clc1ccc2c(c1)c(-c1ccccc1)nc1nnnn12 | > 1.18 µM | > 10 µM | > 1.25 µM |  |  |

| Compound | EC50 ([1]; Plasmodium falciparum, W2) | CC50 [2] | EC50 ([3]; Plasmodium falciparum, 3D7) | EC50 [1] | EC50 [3] |
| --- | --- | --- | --- | --- | --- |
| Cc1ccc(N(C)C(=O)CCNS(=O)(=O)c2cc(Br)cnc2N)cc1 | 0.224 µM | > 100 µM | 1.92 µM |  |  |
| COc1ccc(NC(=O)c2cccc([N+](=O)[O-])c2C)cc1 | 4.77 µM | > 100 µM | > 3.55 µM |  |  |
| OCCNc1nc(Nc2ccc(F)cc2)nc2ccccc12 | 0.749 µM | > 100 µM | 0.223 µM |  |  |
| CCNC(=O)NCCSc1nc(-c2ccccc2)c(-c2ccccc2)n1CC | 0.917 µM | > 100 µM | 1.63 µM |  |  |
| Cc1ccccc1N=Nc1ccc(NC(=O)c2ccco2)c(C)c1 | 0.272 µM | 72.2 µM | 0.402 µM |  |  |
| c1ccc(Oc2cccc(CN3CCc4nc(N5CCCCC5)sc4C3)c2)cc1 | 0.173 µM | > 10 µM | 0.294 µM |  |  |
| CC(=O)Nc1ccc(-c2nc(-c3ccc(Oc4ccc(-c5[nH]c(-c6ccc(NC(C)=O)cc6)nc5-c5ccccc5)cc4)cc3)c(-c3ccccc3)[nH]2)cc1 | 5.59 µM | 50.1 µM | 6.95 µM |  |  |
| COc1cc(OC)cc(N2CCN(CCNCCOc3ccccc3)[C@@H](c3ccccc3)C2)c1 | > 0.635 µM | > 10 µM | > 1.25 µM |  |  |
| Cc1n(N)c2ccccc2[n+]1CC(=O)c1ccc([N+](=O)[O-])cc1 | 1.14 µM | > 100 µM | 1.95 µM |  |  |
| Oc1c2c(nc3cc(-c4ccccc4)nn13)CCCC2 | > 12.5 µM | > 100 µM | 1.93 µM |  |  |
| Cc1ccc(-c2nn3c(O)c4c(nc3c2C)CCCC4)cc1 | 0.384 µM | > 100 µM | 0.256 µM |  |  |
| CC(=O)N(C1=C(N2CCCCC2)C(=O)c2ccccc2C1=O)c1ccc(F)c(F)c1 | 0.0947 µM | 47.7 µM | 0.238 µM |  |  |
| CCCC[n+]1c(C=C2C=Cc3ccccc3N2CC)sc2ccccc21 |  | > 10 µM |  | 0.694 µM | 0.724 µM |
| COc1ccc(/C=C2\N=C(c3ccc(Cl)cc3)N(c3ccccc3)C2=O)cc1OC | > 1.15 µM | > 10 µM | > 1.25 µM |  |  |
| COc1cccc2c1[C@@H](OC)[C@@]13O[C@]1(C2=O)[C@H](O)[C@@H](C)[C@](O)(C(=O)[C@@H]1O[C@H]1C)[C@H]3O | 0.226 µM | 2.82 µM | 0.264 µM |  |  |
| COc1ccc(/C=C/c2nc(=O)c3ccccc3o2)cc1 | 0.48 µM | > 10 µM | 1.24 µM |  |  |
| Cc1ccc(C)c(NC(=O)C2CCCN(c3nnc(N4CCCC4=O)s3)C2)c1 (stereo not given) | 0.154 µM | > 100 µM | > 5.75 µM |  |  |
| O=c1ccc2cc(Cl)c(O)c(Cl)c2o1 | > 0.234 µM | > 10 µM | > 1.25 µM |  |  |
| CCN(CC)CCNC(=O)c1cc(-c2ccc(Cl)cc2)cc(-n2cnnn2)c1 | < 0.0261 µM | > 10 µM | 0.644 µM |  |  |
| FC(F)(F)c1cccc(NC(=S)N2CCCC2c2ccncc2)c1 (stereo not given) | 0.37 µM | > 10 µM | 0.327 µM |  |  |
| Oc1c2c(nc3cc(-c4ccc(Br)cc4)nn13)CCCC2 | 1.3 µM | > 100 µM | 0.522 µM |  |  |
| Cc1ccc(Nc2cc(C)nc(NCc3ccccc3)n2)cc1 | 0.132 µM | 10.5 µM | 0.112 µM |  |  |
| O=C(NC(C(=O)c1ccccc1)N1CCCCC1)c1ccco1 (stereo not given) | > 1.76 µM | > 10 µM | > 0.831 µM |  |  |
| OC(Cn1cnc(-c2ccccc2)c1-c1ccccc1)Cn1c2ccc(Cl)cc2c2cc(Cl)ccc21 (stereo not given) | 0.0997 µM | 21.2 µM | 0.589 µM |  |  |

| Compound | EC50 ([1]; Plasmodium falciparum, W2) | CC50 [2] | EC50 ([3]; Plasmodium falciparum, 3D7) | EC50 [1] | EC50 [3] |
| --- | --- | --- | --- | --- | --- |
| COc1ccc(Nc2nc(NN=Cc3cc4c(cc3Br)OCO4)nc(Nc3ccc([N+](=O)[O-])cc3)n2)cc1 | 0.684 µM | > 100 µM | 0.46 µM |  |  |
| Cc1cccc(OCC(O)CN2CCN(CC(=O)c3ccc(Br)cc3)CC2)c1 (stereo not given) | 0.896 µM | 0.214 µM | > 1.25 µM |  |  |
| Cc1oc2c(c1C(=O)N1CCC(C)CC1)C(=O)c1ccccc1C2=O | 0.0792 µM | 48.3 µM | 0.222 µM |  |  |
| CCCCCn1c(SCc2ccc(C)cc2)nc2cc(C(=O)NCc3ccco3)ccc2c1=O | 3.16 µM | > 100 µM | > 12.5 µM |  |  |
| COC(=O)c1c(-c2c(Cl)cccc2Cl)noc1C=CNc1ccccc1 | 8.79 µM | 76.8 µM | > 12.5 µM |  |  |
| Cc1ccc(C(=O)NC2CCN(S(=O)(=O)c3c(C)cc(C)cc3C)CC2)cc1 | 0.472 µM | > 100 µM | 1.45 µM |  |  |
| COC(=O)[C@@H]1C[C@@H](NC(=O)c2ccc(OC)cc2OC)CN1Cc1cc(C)ccc1C | 1.32 µM | > 100 µM | 1.07 µM |  |  |
| C=C(C)CSc1nc(N)c2c3c(sc2n1)CN(CCC)CC3 | 0.383 µM | > 66.3 µM | 0.799 µM |  |  |
| OC1(c2ccc3ccccc3c2)c2c(c3ccccc3c3ccccc23)C2=NCCN21 (stereo not given) | 0.281 µM | > 10 µM | 0.252 µM |  |  |
| CCN1CCN(c2cc(C)c3cc(NC(=O)c4cc(OC)cc(OC)c4)ccc3n2)CC1 | 0.587 µM | 12.9 µM | 0.183 µM |  |  |
| N#Cc1ccc(NC(=O)CCCC(=O)O)cc1 | < 0.0106 µM | > 10 µM | 2.08 µM |  |  |
| Cc1cc(F)ccc1NC(=O)C(C)n1c2ccccc2c2nc(=O)cc(C)n21 (stereo not given) | 0.127 µM | > 100 µM | 0.283 µM |  |  |
| CN(C)CCNC(=S)Nc1cccc(C(F)(F)F)c1 | 0.897 µM | > 100 µM | 4.03 µM |  |  |
| COc1ccc(C2CC(c3c(-c4ccccc4)c4cc(Cl)ccc4[nH]c3=O)=NO2)cc1 (stereo not given) | > 0.359 µM | > 10 µM | 0.624 µM |  |  |
| CCN1CCC(Nc2ccnc3cc4ccccc4cc23)CC1 | 0.477 µM | > 10 µM | 0.0815 µM |  |  |
| Clc1cccc(Nc2nc(NCc3ccco3)c3ccccc3n2)c1 | 0.203 µM | 16.1 µM | 0.112 µM |  |  |
| CC(C)CNC(=O)c1cnc(NCCCN2CCCCC2C)nc1NCC(C)C (stereo not given) | 1.46 µM | > 10 µM | 0.344 µM |  |  |
| c1ccc2c(c1)[nH]c1c(NCCN3CCCCC3)ncnc12 | 0.788 µM | 49.9 µM | 0.704 µM |  |  |
| Cc1ccn2c(NC(C)(C)CC(C)(C)C)c(-c3ccccc3OC(=O)CCCCl)nc2c1 | 0.0202 µM | > 10 µM | 0.753 µM |  |  |
| O=C(CCl)Nc1ccc(S(=O)(=O)OCC(F)(F)C(F)F)cc1 | 1.58 µM | 17.1 µM | 1.73 µM |  |  |
| Nc1c(Cl)c(Cl)nc(C(Cl)(Cl)Cl)c1Cl | 0.286 µM | > 100 µM | 0.448 µM |  |  |
| CCOc1ccccc1C1NC(=O)NC(C)=C1C(=O)OCC(F)(F)C(F)(F)F (stereo not given) | > 0.913 µM | > 10 µM | > 1.25 µM |  |  |
